Test results from patent US9232796B2, “Herbicidal compositions comprising 4-amino-3-chloro-5-fluoro-6-(4-chloro-2-fluoro-3-methoxyphenyl) pyridine-2-carboxylic acid or a derivative thereof and acetyl-CoA carboxylase (ACCase) inhibitors” (DOW AGROSCIENCES LLC, priority 2012, dated 2016).

What was measured:
[1] = test system: CYPDI; assay: Example I postemergence foliar-applied, greenhouse, direct seeded rice weeds; type: in vivo, Cyperus difformis L.; details: 4.38 gae/ha
Excerpt: (§1) Seeds or nutlets of the desired test plant species were planted in a soil matrix prepared by mixing a loam or sandy loam soil (e.g., 28.6 percent silt, 18.8 percent clay, and 52.6 percent sand, with a pH of about 5.8 and an organic matter content of about 1.8 percent) and calcareous grit in an 80 to 20 ratio. The soil matrix was contained in plastic pots with a volume of 1 quart and a surface area of 83.6 square centimeters (cm^2). When required to ensure good germination and healthy plants, a fungicide treatment and/or other chemical or physical treatment was applied. The plants were grown for 8-22 days in a greenhouse with an approximate 14 hr. photoperiod which was maintained at about 29° C. during the day and 26° C. during the night. Nutrients (Peters Excel® 15-5-15 5-Ca 2-Mg and iron chelate) were applied in the irrigation solution as needed and water was added on a regular basis. Supplemental lighting was provided with overhead metal halide 1000-Watt lamps as necessary. The plants were employed for testing when they reached the first through fourth true leaf stage.
Treatments consisted of the acid or esters of 4-amino-3-chloro-5-fluoro-6-(4-chloro-2-fluoro-3-methoxy-phenyl)pyridine-2-carboxylic acid (Compound A), each formulated as an SC (suspension concentrate), and various herbicidal components alone and in combination.
Other herbicidal components were applied on an acid equivalent (ae) or active ingredient (ai) basis and included acetyl coA carboxylase (ACCase)-inhibiting herbicides (cyclohexanedione and aryloxyphenoxypropionate chemical classes) cyhalofop-butyl formulated as Clincher® SF (285 gr ai/L EC), diclofop-methyl formulated as Hoelon® 3EC, fenoxaprop-p-ethyl+isoxadifen-ethyl formulated as RiceStar® HT (0.58 lb./gal EC), fenoxaprop-p-ethyl+mefenpyr diethyl formulated as Puma® IEC, metamifop formulated as Metamifop EC, haloxyfop-methyl formulated as Gallant Super®, fluazifop-p-butyl formulated as Fusilade® DX, quizalofop-p-ethyl formulated as Assure® II, profoxydim formulated as Aura® 20EC, clethodim applied as Intensity®, sethoxydim formulated as Poast®, and tralkoxydim formulated as Achieve®.
(§2) Treatment requirements were calculated based upon the rates being tested, the concentration of active ingredient or acid equivalent in the formulation, and a 12 mL application volume at a rate of 187 L/ha.
For treatments comprised of formulated compounds, measured amounts of compounds were placed individually in 25 mL glass vials and diluted in a volume of 1.25% (v/v) Agri-Dex® crop oil concentrated to obtain 12× stock solutions. […] Application solutions were prepared by adding an appropriate amount of each stock solution (e.g., 1 mL) and diluted to the appropriate final concentrations with the addition of 10 mL of an aqueous mixture of 1.25% (v/v) crop oil concentrate so that the final spray solutions contained 1.25+/−0.05% (v/v) crop oil concentrate.
All stock solutions and applications solutions were visually inspected for compound compatibility prior to application. […]
(§3) The treated plants and control plants were placed in a greenhouse as described above and watered by sub-irrigation to prevent wash-off of the test compounds. After approximately 3 weeks, the condition of the test plants as compared with that of the untreated plants was determined visually and scored on a scale of 0 to 100 percent where 0 corresponds to no injury or growth inhibition and 100 corresponds to complete kill. […]

[2] = test system: DIGSA; assay: as above; type: in vivo, Digitaria sanguinalis (L.) Scop.
Excerpt: as §1
Treatments consisted of the acid or esters of 4-amino-3-chloro-5-fluoro-6-(4-chloro-2-fluoro-3-methoxy-phenyl)pyridine-2-carboxylic acid (Compound A), each formulated as an SC (suspension concentrate), and various herbicidal components alone and in combination. […]
as §2
For treatments comprised of formulated compounds, measured amounts of compounds were placed individually in 25 mL glass vials and diluted in a volume of 1.25% (v/v) Agri-Dex® crop oil concentrated to obtain 12× stock solutions. […]
as §3

[3] = test system: AVEFA; assay: Example IV postemergence foliar-applied, greenhouse, cereal crops weeds; type: in vivo, Avena fatua L.
Experimental: Seeds of the desired test plant species were planted in Sun Gro MetroMix® 306 planting mixture, which typically has a pH of 6.0 to 6.8 and an organic matter content of about 30 percent, in plastic pots with a surface area of 103.2 square centimeters (cm^2). When required to ensure good germination and healthy plants, a fungicide treatment and/or other chemical or physical treatment was applied. The plants were grown for 7-36 days in a greenhouse with an approximate 14 hour photoperiod which was maintained at about 18° C. during the day and about 17° C. during the night. Nutrients and water were added on a regular basis and supplemental lighting was provided with overhead metal halide 1000-Watt lamps as necessary. The plants were employed for testing when they reached the second or third true leaf stage.
Treatments consisted of the benzyl ester of 4-amino-3-chloro-5-fluoro-6-(4-chloro-2-fluoro-3-methoxy-phenyl)pyridine-2-carboxylic acid (Compound A), formulated as an SC, a second cereal herbicide alone and then both in combination.
Other herbicidal components were applied on an active ingredient basis and included acetyl-CoA carboxylase (ACCase)-inhibiting herbicides clodinafop-propargyl, fenoxaprop-P-ethyl, pinoxaden and tralkoxydim.
Measured aliquots of benzyl ester of 4-amino-3-chloro-5-fluoro-6-(4-chloro-2-fluoro-3-methoxy-phenyl)pyridine-2-carboxylic acid (Compound A) were placed in 25 milliliter (mL) glass vials and diluted in a volume of 1.25% (v/v) Agri-Dex® crop oil concentrate to obtain stock solutions. Compound requirements are based upon a 12 mL application volume at a rate of 187 liters per hectare (L/ha). Spray solutions of the second cereal herbicide and experimental compound mixtures were prepared by adding the stock solutions to the appropriate amount of dilution solution to form 12 mL spray solution with active ingredients in two- and three-way combinations. Formulated compounds were applied to the plant material with an overhead Mandel track sprayer equipped with an 8002E nozzle calibrated to deliver 187 L/ha over an application area of 0.503 square meters (m^2) at a spray height of 18 inches (46 cm) above average plant canopy. Control plants were sprayed in the same manner with the solvent blank.
as §3, with “20-22 days,” for “approximately 3 weeks,”, “control” for “untreated”, “injury” for “injury or growth inhibition”

| Structure (SMILES) | Visual Weed Control (%) - 20 DAA CYPDI Obs [1] [%] | Visual Weed Control (%) - 22 DAA CYPDI Obs [1] [%] | Visual Weed Control (%) - 20 DAA DIGSA Obs ([2]; 8 gae/ha) [%] | Visual Weed Control (%) - 20 DAA DIGSA Obs ([2]; 16 gae/ha) [%] | Visual Weed Control (%) - 20 DAA DIGSA Obs ([2]; 32 gae/ha) [%] | Visual Weed Control (%) - 21 DAA AVEFA Obs ([3]; Compound A Benzyl Ester 5 gai/ha) [%] | Visual Weed Control (%) - 21 DAA AVEFA Obs ([3]; Compound A Benzyl Ester 10 gai/ha) [%] |
| --- | --- | --- | --- | --- | --- | --- | --- |
| COc1c(Cl)ccc(-c2nc(C(=O)O)c(Cl)c(N)c2F)c1F [Compound A Acid, 4-amino-3-chloro-6-(4-chloro-2-fluoro-3-methoxyphenyl)-5-fluoropyridine-2-carboxylic acid] | 80 | 60 | – | – | – | – | – |
| COc1c(Cl)ccc(-c2nc(C(=O)OCc3ccccc3)c(Cl)c(N)c2F)c1F [Compound A Benzyl Ester, benzyl ester of 4-amino-3-chloro-5-fluoro-6-(4-chloro-2-fluoro-3-methoxy-phenyl)pyridine-2-carboxylic acid] | – | – | 15 | 25 | 35 | 0 | 0 |
